The values below come from patent US20130131008A1, “LIPOPHILIC MONOPHOSPHORYLATED DERIVATIVES AND NANOPARTICLES” (BOARD OF REGENTS, THE UNIVERSITY OF TEXAS SYSTEM, priority 2011, published 2013).

For one test, the system named is PANC-1 cells. Briefly: Trypan blue exclusion assay of cell viability. The class given is cell-based, human. Particulars: 400 μM. On the procedure:
Cell viability was determined using a trypan blue exclusion assay. Data shown are mean±S.D. (S.D.: standard deviation) (n=3). Experiment was repeated twice.

Test [1] has as its target T1, dCDA partially purified from BxPC-3 cells (Homo sapiens, UniProt P32320).
T1 construct: dCDA was partially purified from BxPC-3 cells as previously described; endogenous in cells; host or cells: BxPC-3 (ATCC CRL-1687), 40-55% ammonium sulfate fraction of the cell lysate
Description: dCDA activity (competition) assay, conversion of dCyd to dUrd. The class given is biochemical. As to conditions: 0.5 mM dCyd, 37° C., 15 min; inhibitor […] (FIG. 2B). On the procedure: Proton NMR spectra were recorded on a 300 MHz Varian UNITYplus™ or a 500 MHz Varian INOVA. Chemical shifts (δ) of ^1H NMR spectra were recorded in parts per million (ppm) relative to tetramethylsilane (TMS), which was the reference (δ=0 ppm). ^1H NMR data are reported according to the following order: chemical shift, integration (i.e., number of hydrogen atoms), multiplicity (s=singlet, d=doublet, t=triplet, q=quartet, m=multiplet, br=broad, brs=broad singlet), and coupling constant in Hertz (Hz). […] The concentrations of dCyd and dUrd in the dCDA assay were determined using an Agilent 1260 Infinity high performance liquid chromatography (HPLC) with an Agilent ZORBAX® Eclipse Plus C18 column (4.6×150 mm, 5 μm) attached to a ZORBAX® Eclipse Plus guard column (Agilent Technologies, Inc., Santa Clara, Calif.).
dCDA was partially purified from BxPC-3 cells as previously described. […] Protein concentration was measured using Bradford reagent from Sigma-Aldrich. […] The mixture was centrifuged at 10,000 g for 1 min, and the upper layer was analyzed using HPLC (detection wavelength, 260 nm; mobile phase, 10% methanol in water). The relevant peaks were quantified to determine the concentrations of dCyd and dUrd. […]

The test system of the next test is TC-1-GR tumors. As to conditions: mice with pre-established TC-1-GR tumors; cited from earlier work.
A further test has as its system MIA PaCa-2 cells. As to conditions: literature value; read-out: IC50 in MIA PaCa-2 cells reported by Duxbury et al.; cited from earlier work.

T1 sequence (P32320 whole entry): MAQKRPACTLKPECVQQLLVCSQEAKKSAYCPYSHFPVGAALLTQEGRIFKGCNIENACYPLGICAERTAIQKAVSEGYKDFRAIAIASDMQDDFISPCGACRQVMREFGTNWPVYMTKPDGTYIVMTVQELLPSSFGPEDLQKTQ

For `Cl.Nc1ccn([C@@H]2O[C@H](CO)[C@@H](O)C2(F)F)c(=O)n1` [Gemcitabine HCl, 2′,2′-difluorodeoxycytidine HCl, reference compound], the “Time to kill 50% of PANC-1 cells” value in the test with PANC-1 cells amounted to 116 h. Moreover, the “Inhibition of the deamination of dCyd (conversion to dUrd) by dCDA” value in test [1] is on record as “competitively inhibited the conversion of dCyd to dUrd”. Moreover, the “TC-1-GR tumor growth in mice (previous study)” value in the test with TC-1-GR tumors was “did not show any significant anti-tumor activity”. The IC50 with MIA PaCa-2 cells was 40 nM.

Broadly, the IC50 is the point on the concentration scale where inhibition reaches its midpoint.
